The values below come from US7517517B2 (Janssen Pharmaceutica N.V., priority 2002, dated 2009).

Several values for one entry are separate records, joined by “and”; a condition that tells them apart may be missing. Equal values may be shown once.

Series [1] has as its target T1, rat mGlu1a receptor (Rattus norvegicus, UniProt P23385).
T1 construct: host or cells: CHO-dhfr- cells
In words: Intracellular Ca2+ response in rat mGlu1a receptor expressing CHO-dhfr− cells (FLIPR). The format is cell-based. Conditions: CHO-dhfr− cells expressing rat mGlu1a; same assay; read-out: IC50, inhibition of the glutamate-induced increase in [Ca2+]i.

The target in series [2] is T1, rat mGlu1a receptor. In words: [3H]Compound A binding to rat mGlu1a receptor CHO-dhfr− membranes (saturation, kinetics, inhibition). Conditions: for Ki: 2.5 nM [3H]Compound A, 30 min at 4° C.; for inhibition of [3H]Compound A binding (in words): rat mGlu1a receptor CHO-dhfr− membranes.
Series [3] addresses T1, rat mGlu1a receptor. As to the kind of experiment: [3H]quisqualate binding to rat mGlu1a receptor CHO-dhfr− membranes (saturation, inhibition).
Series [4] has as its target T2, cloned rat mGlu1 receptor (Rattus norvegicus, UniProt P23385).
T2 construct: expressed in transfected cells; host or cells: CHO cells
In words: Signal transduction at the cloned rat mGlu1 receptor in CHO cells (glutamate-induced Ca2+ rise, FLIPR). The format is cell-based. The conditions noted are these: for IC50: inhibition of glutamate-induced intracellular Ca2+ rise, CHO cells expressing mGlu1 receptor, compounds with pIC50 between 7 and 8.

A further series has as its target mGlu1 receptor (Rattus norvegicus, UniProt P23385). In words: [3H]Compound A binding to rat brain membranes (cortex, hippocampus, striatum, cerebellum). Conditions: tested up to 30 μM. As for the experimental part: Tissue preparation. Male Wistar rats (˜200 g) were sacrificed by decapitation. The brains were rapidly removed and cortex, hippocampus, striatum and cerebellum were immediately dissected. The fresh tissue was homogenized with an Ultra Turrax in 20 volumes of 50 mM Tris-HCl, pH 7.4 and tissue was centrifuged at 23,500 g for 10 min. After homogenisation using a DUAL homogeniser, membranes were washed twice by centrifugation at 23,500 g for 10 min. The final pellet was suspended in 10 volumes of 50 mM Tris-HCl, pH 7.4 and frozen at −80° C.
In vitro binding assay. After thawing, membranes from rat cortex, cerebellum, striatum and hippocampus were rehomogenized using a DUAL and suspended in ice-cold binding buffer containing 50 mM Tris-HCl, 1.2 mM MgCl2, 2 mM CaCl2, pH 7.4. The binding assay was carried out in a total volume of 0.5 ml containing 2.5 nM [^3H]Compound A and a membrane aliquot corresponding to 40 μg for cerebellar membranes, 60 μg for hippocampal membranes, 80 μg for striatal membranes or 150 μg for cortical membranes. […] After incubation for 30 min at 4° C., the labelled membranes were washed and harvested by rapid vacuum filtration over Whatman GF/C glass-fibre filters using a 40-well filtration manifold and radioactivity collected on the filters was counted as above.
Data analysis was performed using the GraphPad Prism program (GraphPad Prism Software, Inc., San Diego, Calif.). Saturation binding experiments were analysed using a non-linear regression analysis. Inhibition curves were fitted using non-linear regression analysis fitting the one-site competition equation: Y=Bottom+((Top−Bottom)/1+10^X-LogIC50). Ki values were calculated using the Cheng-Prusoff equation: Ki=IC50/[1+([C]/KD)] where C is the concentration of radioligand and KD is the dissociation constant of the radioligand (Cheng and Prusoff, Biochem. Pharmacol. 22, 3099-3108, 1973). The observed on (kob) and off (koff) rate were calculated from association-dissociation curves using the one-phase-exponential association and decay equations in the Prism program, respectively. kon was calculated by subtracting koff from kob and dividing by the radioligand concentration. The two-tailed Student's t-test was used for statistical evaluation of the binding data: * p<0.05, ** p<0.01 and *** p<0.001. The Dunnett's t-test following a 2-way analysis of variance (with as factors compound concentration and experiment) were used to analyse the data from the IP experiments.

[5] abbreviates: inhibition of [3H]quisqualate binding, rat mGlu1a receptor CHO-dhfr− membranes, mean ± SD of 2 experiments.

T2 sequence (P23385 19-1199): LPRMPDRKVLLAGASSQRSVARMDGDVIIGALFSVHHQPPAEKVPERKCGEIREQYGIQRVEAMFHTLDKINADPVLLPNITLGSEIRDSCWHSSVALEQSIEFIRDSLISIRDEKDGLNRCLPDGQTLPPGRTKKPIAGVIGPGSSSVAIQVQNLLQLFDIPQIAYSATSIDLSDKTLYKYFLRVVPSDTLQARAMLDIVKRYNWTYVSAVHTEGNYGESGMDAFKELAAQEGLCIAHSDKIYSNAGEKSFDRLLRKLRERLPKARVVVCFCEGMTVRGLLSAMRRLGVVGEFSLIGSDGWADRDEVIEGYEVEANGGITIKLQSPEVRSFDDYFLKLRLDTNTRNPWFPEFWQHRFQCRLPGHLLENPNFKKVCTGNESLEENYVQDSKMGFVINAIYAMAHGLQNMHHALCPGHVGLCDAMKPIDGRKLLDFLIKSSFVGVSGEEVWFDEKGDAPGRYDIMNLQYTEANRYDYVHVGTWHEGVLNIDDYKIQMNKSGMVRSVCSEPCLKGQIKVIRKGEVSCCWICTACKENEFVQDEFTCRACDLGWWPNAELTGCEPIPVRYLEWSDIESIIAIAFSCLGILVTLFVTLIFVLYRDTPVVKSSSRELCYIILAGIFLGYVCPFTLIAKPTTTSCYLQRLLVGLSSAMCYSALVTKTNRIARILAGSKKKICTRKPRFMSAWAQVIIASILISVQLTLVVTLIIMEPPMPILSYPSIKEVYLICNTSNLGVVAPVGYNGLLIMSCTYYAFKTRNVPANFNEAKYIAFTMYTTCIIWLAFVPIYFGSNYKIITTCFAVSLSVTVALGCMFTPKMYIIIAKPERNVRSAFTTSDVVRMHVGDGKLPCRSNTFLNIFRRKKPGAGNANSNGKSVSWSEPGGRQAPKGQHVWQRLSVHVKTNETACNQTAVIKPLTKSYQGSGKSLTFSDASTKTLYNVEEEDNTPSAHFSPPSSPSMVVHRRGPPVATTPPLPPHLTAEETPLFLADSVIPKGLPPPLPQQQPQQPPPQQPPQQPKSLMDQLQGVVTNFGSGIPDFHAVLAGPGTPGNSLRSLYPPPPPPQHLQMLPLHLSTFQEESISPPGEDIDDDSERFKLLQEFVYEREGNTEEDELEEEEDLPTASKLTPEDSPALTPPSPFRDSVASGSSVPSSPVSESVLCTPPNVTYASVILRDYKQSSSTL
T1 sequence (P23385 19-1199): as above

Take `CCOC(=O)[C@]12CC1/C(=N\O)c1ccccc1O2` (mixture of isomers) [CPCCOEt, reference compound]: at rat mGlu1a receptor [1], the IC50 worked out at 10.3 ± 0.8 µM. The inhibition constant Ki is 4900 nM on rat mGlu1a receptor [2] (mean ± SD of 3–4 experiments) and more than 1000 µM at rat mGlu1a receptor [3].

In the case of `N[C@@]1(C(=O)O)CC[C@@H](C(=O)O)C1` [1S,3R-ACPD, reference compound], the “inhibition of [3H]Compound A binding (in words)” value (“inhibition” for short) on rat mGlu1a receptor [2] was “did not inhibit”. The Hill coefficient at rat mGlu1a receptor [3] (setting [5]) was 0.97 ± 0.01.

On rat mGlu1a receptor [2] (mean ± SD of 3–4 experiments), `N[C@H](C(=O)O)c1cc(O)cc(O)c1` [(S)-3,5-DHPG, reference compound] displayed an inhibition constant (Ki) of more than 1e+06 nM. The “inhibition” value on rat mGlu1a receptor [2] is recorded as “did not inhibit”. Besides, at rat mGlu1a receptor [3] (setting [5]), the Hill coefficient came to 0.97 ± 0.00 and affinity was put at a Ki of 1.42 µM.

In the case of `N[C@H](C(=O)O)c1ccc(C(=O)O)c(O)c1` [(S)-4C3HPG], the Ki on rat mGlu1a receptor [2] (mean ± SD of 3–4 experiments) was more than 1e+06 nM. On rat mGlu1a receptor [3] (setting [5]), the Hill coefficient is given as 0.98 ± 0.02 and the Ki was 1.65 ± 0.06 µM.

With `N[C@H](C(=O)O)c1ccc(C(=O)O)cc1` [(S)-4CPG, reference compound], the inhibition constant (Ki) on rat mGlu1a receptor [2] (mean ± SD of 3–4 experiments) is more than 1e+06 nM. In addition, the “inhibition” value on rat mGlu1a receptor [2] is “did not inhibit”. At rat mGlu1a receptor [3] (setting [5]), the Hill coefficient is given as 0.98 ± 0.00 and affinity was put at a Ki of 4.51 ± 0.78 µM.

In turn, `NC1(C(=O)O)CCc2cc(C(=O)O)ccc21` (stereo not shown) [AIDA, reference compound] came in with a Ki at rat mGlu1a receptor [2] (mean ± SD of 3–4 experiments) of more than 1e+06 nM. Besides, the “inhibition” value at rat mGlu1a receptor [2] is listed as “did not inhibit”. On rat mGlu1a receptor [3] (setting [5]), this compound returned a Hill coefficient of 0.98 ± 0.03 and a Ki of 98.3 ± 15.4 µM.

For the compound `C#Cc1nc2ccc(C(=O)C3CCC(OC)CC3)cc2cc1CC` (stereo not shown) [Compound 15], the melting point was 132 °C and 133 °C. The compound further had a half-maximal inhibitory concentration (IC50) in series [4] of 0.0117 µM.

For `CCc1cc2cc(C(=O)C3CCC(OC)CC3)ccc2nc1C` (stereo not shown) [Compound 27], the melting point was determined as 110 °C. This compound displayed a negative-log IC50 (pIC50) in series [4] (50% inhibition of the glutamate-induced intracellular Ca2+ rise, CHO cells, FLIPR) of 8.527.

`CCc1cc2cc(C(=O)C3CCC(OC)CC3)ccc2n2nnnc12` (stereo not shown) [Compound 35] showed a melting point of 160 °C. The compound further gave an IC50 in series [4] of 0.0437 µM.

On rat mGlu1a receptor [2] (mean ± SD of 3–4 experiments), `Cc1cc(C(=O)O)ccc1[C@H](N)C(=O)O` [LY367385, reference compound] showed a Ki of more than 1e+06 nM. Moreover, the “inhibition” value on rat mGlu1a receptor [2] is given as “did not inhibit”. At rat mGlu1a receptor [3] (setting [5]), this compound registered a Hill coefficient of 0.99 ± 0.01 and an inhibition constant Ki of 1.18 ± 0.47 µM.

Turning to `Cc1cccc(C#Cc2ccccc2)n1` [MPEP, reference compound], the “effect on [3H]Compound A binding to rat cerebellar membranes” value at mGlu1 receptor is given as “did not affect”.

For `O=C(NC12CC3CC(CC(C3)C1)C2)c1cnc2ccccc2n1` [NPS 2390, reference compound], the Ki on rat mGlu1a receptor [2] (mean ± SD of 3–4 experiments) is 1.36 ± 0.5 nM; at rat mGlu1a receptor [3] (setting [5]) it was more than 1000 µM. The Hill coefficient on rat mGlu1a receptor [2] (inhibition of [3H]Compound A-binding, mean ± SD of 3–4 experiments) was 0.97 ± 0.02. For the same compound, at rat mGlu1a receptor [3] (rat mGlu1a receptor CHO-dhfr− membranes), the “effect on [3H]quisqualate binding (in words)” value was “did not affect”.

Take `N[C@@H](Cn1oc(=O)[nH]c1=O)C(=O)O` [quisqualate, reference compound]: the “inhibition” value on rat mGlu1a receptor [2] is on record as “did not inhibit”. On rat mGlu1a receptor [3] (setting [5]), this compound came in with a Hill coefficient of 0.98 ± 0.01.
